Test results as given in paper PMC3213090, “Phytophthora sojae Avirulence Effector Avr3b is a Secreted NADH and ADP-ribose Pyrophosphorylase that Modulates Plant Immunity” (PLoS Pathogens, 2011).

Legend:
FLAG:AtNUDT7 = target: T1, FLAG:AtNUDT7 (Arabidopsis thaliana, UniProt Q9SU14); assay: phosphate release coupled to calf alkaline phosphatase, molybdate A820; assay type: biochemical; conditions: 2 mM substrate, 5 mM MgCl2, 1 mM DTT, pH 8.5, 37 C; immunoprecipitate, not homogeneous
T1 construct: gene NUDT7; FLAG tag fused; Nicotiana benthamiana transient expression, anti-FLAG immunoprecipitated, eluted
T1 sequence (Q9SU14 1-282): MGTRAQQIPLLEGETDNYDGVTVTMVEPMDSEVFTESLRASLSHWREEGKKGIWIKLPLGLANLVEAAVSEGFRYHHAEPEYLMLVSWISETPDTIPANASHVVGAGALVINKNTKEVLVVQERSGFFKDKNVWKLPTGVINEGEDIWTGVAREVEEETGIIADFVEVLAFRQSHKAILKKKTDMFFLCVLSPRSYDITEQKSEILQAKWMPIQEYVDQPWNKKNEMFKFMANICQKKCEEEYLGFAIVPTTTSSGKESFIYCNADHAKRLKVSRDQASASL

[1] = target: T2, FLAG:Avr3b^P6497 (Avh307^P6497) (Phytophthora sojae, UniProt E0W4V8); assay: as above; assay type: biochemical; conditions: 2 mM substrate, 5 mM MgCl2, 1 mM DTT, pH 8.5, 37 C; immunoprecipitate, not homogeneous
T2 construct: gene Avh; signal peptide replaced by N-terminal FLAG tag; 34-35 kDa; precursor 315 residues; Nicotiana benthamiana agroinfiltration (PVX vector pGR107), anti-FLAG immunoprecipitated, 3xFLAG eluted
T2 sequence (E0W4V8 entry or part of it): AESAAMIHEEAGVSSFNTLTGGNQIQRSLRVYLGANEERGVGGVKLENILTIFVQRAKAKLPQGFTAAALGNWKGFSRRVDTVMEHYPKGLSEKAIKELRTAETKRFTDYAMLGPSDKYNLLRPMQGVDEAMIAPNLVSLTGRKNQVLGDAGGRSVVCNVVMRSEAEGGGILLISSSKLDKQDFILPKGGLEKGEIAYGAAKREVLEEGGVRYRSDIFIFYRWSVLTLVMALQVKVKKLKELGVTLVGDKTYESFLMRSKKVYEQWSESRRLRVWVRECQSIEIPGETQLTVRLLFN

| Structure (SMILES) | relative hydrolase activity (ratio over GFP) (FLAG:AtNUDT7) | relative hydrolase activity (ratio over GFP) [1] |
| --- | --- | --- |
| NC(=O)C1=CN([C@@H]2O[C@H](COP(=O)(O)OP(=O)(O)OC[C@H]3O[C@@H](n4cnc5c(N)ncnc54)[C@H](O)[C@@H]3O)[C@@H](O)[C@H]2O)C=CC1 [NADH] | FLAG:AtNUDT7 and FLAG:Avr3b^P6497 immunoprecipitates could both hydrolyze ADPR and NADH | FLAG:AtNUDT7 and FLAG:Avr3b^P6497 immunoprecipitates could both hydrolyze ADPR and NADH |
| Nc1ncnc2c1ncn2[C@@H]1O[C@H](COP(=O)(O)OP(=O)(O)OC[C@H]2OC(O)[C@H](O)[C@@H]2O)[C@@H](O)[C@H]1O (stereo partly shown) [ADP-ribose] | FLAG:AtNUDT7 and FLAG:Avr3b^P6497 immunoprecipitates could both hydrolyze ADPR and NADH | FLAG:AtNUDT7 and FLAG:Avr3b^P6497 immunoprecipitates could both hydrolyze ADPR and NADH |
